Results reported in patent US20090018194A1, “Use of antimicrobial agents derived from alliaceous plants for the prevention and control of crop diseases, post-harvest rot and as environmental disinifectant products” (DMC Research Center, S.L., priority 2007, published 2009).

Columns and labels:
Geotrichum candidum = assay: post-harvest rotting of inoculated oranges (Navelina), immersion treatment; format: in vivo
Procedure: This example considers the effectiveness of the active natural principles PTS and PTSO in two different doses for the control of post-harvest rotting of oranges ([…] variety), caused by controlled artificial inoculation with the fungi Penicillium digitatum, Penicillium expansum, Phytophthora citrophthora and Geotrichum candidum, the principal pathogens of this fruit. The inoculation of the oranges was carried out with suspensions of spores of the different wild fungal strains selected, according to the methodology described below. The first step was the isolation and identification of the fungal strains used in the study. The strains of filamentous fungi used in these tests (Penicillium digitatum, Penicillium italicum and Phytophthora citrophthora) were isolated from oranges affected by rot. In these isolation processes, it was not possible to detect any strain belonging to Geotrichum candidum, as a result of which it was necessary to obtain the latter substance from the Spanish Collection of Standard Cultures, where it is identified by reference CECT 1102. […] To promote the implantation of the inoculum of Geotrichum candidum, 200 ppm of cyclohexamide was added to the inoculum prior to its inoculation. […] The assessment of the effectiveness of PTS and PTSO comprised counting of the number of fruits affected by rot in the inoculated zone, to determine the percentage of fruit affected for each treatment and fungus inoculated, and expressing this effectiveness as a percentage of reduction of the affected fruit.

[1] = test system: Unidentified yeast (CPC-PT-10); assay: agar diffusion test, wild fungi isolated from crown rot in bananas; format: cell-based; details: incl. 6 mm disc
Procedure: (§1) A. The “in vitro” antimicrobial activity of these compounds was tested (referenced as PTS and PTSO), at different doses, as well as their activity against a broad spectrum of bacteria, fungi and yeasts. The tests were conducted against standard micro-organisms (reference strains from different collections of standard crops) and also against wild strains isolated from different types of rot and fruits and other affected crops.
(§2) These tests of antimicrobial capacity were conducted according to the agar diffusion technique, using cellulose discs 6 mm in diameter, impregnated with the different doses under study. For the assessment of the anti-fungal capability, the medium Sabouraud glucosate agar 2% was used, inoculated with suspensions of spores prepared to a concentration on the order of 10^8 cells/ml. To assess the antibacterial capability, the cultivation medium Müller-Hinton agar was used, inoculated with suspensions of bacteria prepared to a concentration of 10^6 cells/ml.
(§3) Once the plates were inoculated, the discs previously impregnated with the different test doses of each of the compounds to be analyzed were put in place. The reading was taken after incubation of the plates by measuring the zone of inhibition that appeared, and the result was expressed in mm corresponding to the diameter of the halo that appeared (including the 6 mm of the cellulose disc).
(§4) Once the screening of the anti-microbial capability of the compounds claimed by the invention had been performed over a broad range of reference strains, their efficiency was corroborated against wild strains, which we isolated as specific pathogens that affect different crops of different geographic origins.

Fusarium sp. (CPC-PT-7) = assay: as above; format: cell-based; details: incl. 6 mm disc
Procedure: as §1, §2, §3, §4

Fusarium sp. (CPC-PT-8) = assay: as above; format: cell-based; details: incl. 6 mm disc
Procedure: as §1, §2, §3, §4

[2] = test system: Colletotrichum sp. (CPC-PC-6); assay: as above; format: cell-based; details: incl. 6 mm disc
Procedure: as §1, §2, §3, §4

Fusarium sp. (CPC-PT-9) = assay: as above; format: cell-based; details: incl. 6 mm disc
Procedure: as §1, §2, §3, §4

[3] = test system: Colletotrichum sp. (CPC-PT-5); assay: as above; format: cell-based; details: incl. 6 mm disc
Procedure: as §1, §2, §3, §4

Penicillium expansum = assay: post-harvest rotting of inoculated pears, drencher treatment; format: in vivo; details: 15 days of refrigeration at 5-6° C.
Procedure: (§5) The effectiveness of the active principle PTS (in various individual doses) was studied in the control of post-harvest rotting of pears and apples caused by the fungi Botrytis cinerea and Penicillium expansum, the principal agents of diseases in these fruits. These phytopathogens can appear in fruit being stored in a cold room and, once in the processing plant and in a later phase, form colonies and are transferred from one fruit to another by contact. The study was performed by means of a controlled inoculation test to ensure a high percentage of affected fruits, and to guarantee that this level of infection is with certainty caused by these pathogens, thereby making it possible to detect and evaluate significant differences between the different treatments. […] To perform the controlled inoculation, wild strains of Botrytris cinerea and Penicillium expansum were used which were isolated in fruit and vegetable processing plants. […] After the time indicated above had passed, the various post-harvest treatments were carried out by means of […] 25° C. for 60 seconds.

Botrytis cinerea = assay: as above; format: in vivo; details: 15 days of refrigeration at 5-6° C.
Procedure: as §5

[4] = test system: Micrococcus luteus ATCC 15307; assay: agar diffusion test with impregnated cellulose discs; format: cell-based; details: incl. 6 mm disc

## CCCS[S+]([O-])CCC (stereo not drawn) [PTS, Propyl Propyl Thiosulfinate]
Geotrichum candidum; 1600 ppm, 7 days at 20° C.
  % Reduction: 95%
  % of fruit affected: 5%
Geotrichum candidum; 1600 ppm, 14 days at 20° C.
  % Reduction: 37%
  % of fruit affected: 63%
Geotrichum candidum; 2500 ppm, 7 days at 20° C.
  % Reduction: 100%
  % of fruit affected: 0%
Geotrichum candidum; 2500 ppm, 14 days at 20° C.
  % Reduction: 37%
  % of fruit affected: 63%
[1]; 30 ppm
  diameter of the microbial inhibition halo: 40 mm
[1]; 60 ppm
  diameter of the microbial inhibition halo: 45 mm
[1]; 125 ppm
  diameter of the microbial inhibition halo: 50 mm
[1]; 250 ppm
  diameter of the microbial inhibition halo: 55 mm
[1]; 500 ppm
  diameter of the microbial inhibition halo: 63 mm
[1]; 1000 ppm
  diameter of the microbial inhibition halo: 65 mm
Fusarium sp. (CPC-PT-7); 30 ppm
  diameter of the microbial inhibition halo: 0 mm
Fusarium sp. (CPC-PT-7); 60 ppm
  diameter of the microbial inhibition halo: 0 mm
Fusarium sp. (CPC-PT-7); 125 ppm
  diameter of the microbial inhibition halo: 15 mm
Fusarium sp. (CPC-PT-7); 250 ppm
  diameter of the microbial inhibition halo: 25 mm
Fusarium sp. (CPC-PT-7); 500 ppm
  diameter of the microbial inhibition halo: 25 mm
Fusarium sp. (CPC-PT-7); 1000 ppm
  diameter of the microbial inhibition halo: 35 mm
Fusarium sp. (CPC-PT-8); 30 ppm
  diameter of the microbial inhibition halo: 0 mm
Fusarium sp. (CPC-PT-8); 60 ppm
  diameter of the microbial inhibition halo: 10 mm
Fusarium sp. (CPC-PT-8); 125 ppm
  diameter of the microbial inhibition halo: 12 mm
Fusarium sp. (CPC-PT-8); 250 ppm
  diameter of the microbial inhibition halo: 15 mm
Fusarium sp. (CPC-PT-8); 500 ppm
  diameter of the microbial inhibition halo: 20 mm
Fusarium sp. (CPC-PT-8); 1000 ppm
  diameter of the microbial inhibition halo: 20 mm
[2]; 30 ppm
  diameter of the microbial inhibition halo: 20 mm
[2]; 60 ppm
  diameter of the microbial inhibition halo: 30 mm
[2]; 125 ppm
  diameter of the microbial inhibition halo: 35 mm
[2]; 250 ppm
  diameter of the microbial inhibition halo: 47 mm
[2]; 500 ppm
  diameter of the microbial inhibition halo: 48 mm
[2]; 1000 ppm
  diameter of the microbial inhibition halo: 45 mm
Fusarium sp. (CPC-PT-9); 30 ppm
  diameter of the microbial inhibition halo: 0 mm
Fusarium sp. (CPC-PT-9); 60 ppm
  diameter of the microbial inhibition halo: 0 mm
Fusarium sp. (CPC-PT-9); 125 ppm
  diameter of the microbial inhibition halo: 0 mm
Fusarium sp. (CPC-PT-9); 250 ppm
  diameter of the microbial inhibition halo: 15 mm
Fusarium sp. (CPC-PT-9); 500 ppm
  diameter of the microbial inhibition halo: 30 mm
Fusarium sp. (CPC-PT-9); 1000 ppm
  diameter of the microbial inhibition halo: 33 mm
[3]; 30 ppm
  diameter of the microbial inhibition halo: 10 mm
[3]; 60 ppm
  diameter of the microbial inhibition halo: 20 mm
[3]; 125 ppm
  diameter of the microbial inhibition halo: 30 mm
[3]; 250 ppm
  diameter of the microbial inhibition halo: 40 mm
[3]; 500 ppm
  diameter of the microbial inhibition halo: 43 mm
[3]; 1000 ppm
  diameter of the microbial inhibition halo: 43 mm
Penicillium expansum; Decana, 500 ppm
  % of fruit affected: 0%
Penicillium expansum; Decana, 666 ppm
  % of fruit affected: 2%
Penicillium expansum; Decana, 833 ppm
  % of fruit affected: 0%
Penicillium expansum; Decana, 1666 ppm
  % of fruit affected: 3%
Penicillium expansum; Flor de invierno, 500 ppm
  % of fruit affected: 3.6%
Penicillium expansum; Flor de invierno, 666 ppm
  % of fruit affected: 2.2%
Penicillium expansum; Flor de invierno, 833 ppm
  % of fruit affected: 2.4%
Penicillium expansum; Flor de invierno, 1666 ppm
  % of fruit affected: 5.3%
Botrytis cinerea; Decana, 500 ppm
  % of fruit affected: 0%
Botrytis cinerea; Decana, 666 ppm
  % of fruit affected: 0%
Botrytis cinerea; Decana, 833 ppm
  % of fruit affected: 1%
Botrytis cinerea; Decana, 1666 ppm
  % of fruit affected: 0.5%
Botrytis cinerea; Flor de invierno, 500 ppm
  % of fruit affected: 3.5%
Botrytis cinerea; Flor de invierno, 666 ppm
  % of fruit affected: 0.4%
Botrytis cinerea; Flor de invierno, 833 ppm
  % of fruit affected: 3.7%
Botrytis cinerea; Flor de invierno, 1666 ppm
  % of fruit affected: 3%
[4]; 25 ppm
  diameter of the microbial inhibition halo: 19 mm
[4]; 50 ppm
  diameter of the microbial inhibition halo: 25 mm
[4]; 100 ppm
  diameter of the microbial inhibition halo: 32 mm
